Test results taken from patent US20020143040A1, “Heterocyclic aromatic oxazole compounds and use thereof” (priority 1994, published 2002).
Like-named read-outs stand apart in the source and are kept apart here. Values belong to the compound of their own block, whether it stands above or below them.

Key:
[1] = target: cyclooxygenase-1 prepared from human platelets (Homo sapiens, UniProt P23219); test: Inhibitory action on cyclooxygenase-1 (conversion of 14C arachidonic acid into PGH2); format: biochemical; conditions: enzyme prepared from human platelets; preincubation 24° C. 5 minutes; read-out: IC50 (μM) COX-1
Description: (Inhibitory Action on Cyclooxygenase)
Inhibition (%)=(1−A/B)×100

human cyclooxygenase-2 = target: T1, human cyclooxygenase-2 (Homo sapiens, UniProt P35354); test: Inhibitory action on cyclooxygenase-2 (conversion of 14C arachidonic acid into PGH2); conditions: for COX-1/COX-2: ratio of IC50 COX-1 to IC50 COX-2
T1 sequence (P35354 18-604): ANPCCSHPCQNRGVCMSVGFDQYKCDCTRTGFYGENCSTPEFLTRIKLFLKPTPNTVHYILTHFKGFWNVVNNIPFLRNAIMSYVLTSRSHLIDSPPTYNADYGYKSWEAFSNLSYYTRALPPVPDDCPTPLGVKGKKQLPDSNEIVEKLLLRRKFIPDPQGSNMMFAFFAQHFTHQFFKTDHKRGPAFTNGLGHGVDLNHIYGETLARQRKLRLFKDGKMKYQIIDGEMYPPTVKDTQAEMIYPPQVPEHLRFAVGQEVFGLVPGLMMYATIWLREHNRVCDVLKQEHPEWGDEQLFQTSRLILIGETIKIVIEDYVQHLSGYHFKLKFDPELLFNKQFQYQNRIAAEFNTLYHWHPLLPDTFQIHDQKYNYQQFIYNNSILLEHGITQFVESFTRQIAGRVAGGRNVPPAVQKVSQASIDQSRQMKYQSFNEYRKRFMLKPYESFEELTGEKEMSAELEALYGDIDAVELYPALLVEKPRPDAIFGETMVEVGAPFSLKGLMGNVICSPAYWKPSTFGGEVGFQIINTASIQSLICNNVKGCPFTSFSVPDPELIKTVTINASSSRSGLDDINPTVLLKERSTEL
Description: The enzymatic activity was determined from the percent conversion of ^14C arachidonic acid into prostaglandin H2 (PGH2) and the decomposed product thereof. That is, a test sample (20 μl), an enzyme solution (20 μl) and distilled water (10 μl) were added to 100 mM Tris-HCl buffer (pH 8, 140 μl) containing hematin (2 μM) and tryptophan (5 mM), and the mixture was thoroughly stirred, which was followed by preincubation at 24° C. for 5 minutes. Then, a ^14C arachidonic acid solution (10 μl) was added and the mixture was reacted at 24° C., whereafter a solution (40 μl) of ethyl ether/methanol/1M citric acid (30/4/1) ice-cooled to −20° C. was added to stop the reaction. The reaction mixture was centrifuged for 5 minutes at 3,000 rpm to give an ether layer which was placed on a thin plate, and developed with ethyl ether/methanol/acetic acid (90/2/0.1) to determine percent conversion (A) from arachidonic acid to PGH2 and the decomposed product thereof.
An enzyme prepared from human platelets was used as an enzyme solution of cyclooxygenase-1, and an enzyme expressed by a yeast, into which cDNA of human cyclooxygenase-2 had been introduced using a kit of Invitrogen Corp., was used as an enzyme solution of cyclooxygenase-2.

[2] = test system: carrageenin-induced podedema; test: Effects on carrageenin-induced podedema; format: in vivo, male Donryu rats; conditions: p.o. one hour before carrageenin; limb volume 3 hours after carrageenin; dose inhibiting by 30% relative to control group
Description: (Effects on Carrageenin-induced Podedema)
Carrageenin (1%, 0.05 ml) dissolved in physiological saline was subcutaneously injected to the left hindlimb of male Donryu rats to induce podedema. The degree of podedema was evaluated by measuring the volume of the limb 3 hours after carrageenin administration. A test compound (1, 3, 10 or 30 mg/kg) was orally administered one hour before carrageenin administration, and suppression thereby was studied. Inhibitory activity was expressed by the dose (ED30) of the test compound necessary for inhibiting by 30% relative to the control group.

Sequence of cyclooxygenase-1 prepared from human platelets (P23219 24-599): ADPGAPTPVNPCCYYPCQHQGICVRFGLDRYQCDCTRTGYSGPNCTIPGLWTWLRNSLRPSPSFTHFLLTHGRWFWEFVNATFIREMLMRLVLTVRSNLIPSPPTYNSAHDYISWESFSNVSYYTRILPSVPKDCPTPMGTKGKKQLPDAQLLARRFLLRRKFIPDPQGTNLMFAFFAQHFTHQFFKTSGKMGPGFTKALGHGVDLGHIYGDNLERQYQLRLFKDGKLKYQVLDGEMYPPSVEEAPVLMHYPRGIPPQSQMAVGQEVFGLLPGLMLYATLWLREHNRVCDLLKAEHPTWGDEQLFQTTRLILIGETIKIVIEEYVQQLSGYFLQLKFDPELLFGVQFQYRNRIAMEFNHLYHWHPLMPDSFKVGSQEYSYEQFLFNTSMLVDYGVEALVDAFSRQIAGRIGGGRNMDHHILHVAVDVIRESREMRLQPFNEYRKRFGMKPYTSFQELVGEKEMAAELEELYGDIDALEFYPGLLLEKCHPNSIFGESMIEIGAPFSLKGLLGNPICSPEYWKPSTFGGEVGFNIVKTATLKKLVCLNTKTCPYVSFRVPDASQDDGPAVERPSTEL

IC50 [1]: 5 µM
IC50 (human cyclooxygenase-2; read-out: IC50 (μM) COX-2, enzyme expressed by yeast with cDNA of human cyclooxygenase-2, preincubation 24° C. 5 minutes): 0.02 µM
SMILES: Cc1nc(-c2ccc(F)cc2)c(-c2ccc(S(N)(=O)=O)cc2)o1 [Control 2, reference compound]

SMILES: Cc1nc(C2CCCCC2)c(-c2ccc(S(N)(=O)=O)c(F)c2)o1 [Example 2, 5-(4-aminosulfonyl-3-fluorophenyl)-4-cyclohexyl-2-methyloxazole]
carrageenin-induced podedema in rats, ED30 (mg/kg p.o.) [2]: 5.5 mg/kg
IC50 [1]: > 100 µM
COX-1/COX-2 (human cyclooxygenase-2): >1,428

SMILES: Cc1nc(C2CCCCC2)c(-c2ccc(S(N)(=O)=O)cc2)o1 [Control 1, reference compound]
COX-1/COX-2 (human cyclooxygenase-2): 643

COX-1/COX-2 (human cyclooxygenase-2): 1,233
SMILES: Cc1nc(-c2ccc(F)cc2)c(-c2ccc(S(N)(=O)=O)c(F)c2)o1 [Example 7, 5-(4-aminosulfonyl-3-fluorophenyl)-4-(4-fluorophenyl)-2-methyloxazole]

COX-1/COX-2 (human cyclooxygenase-2): >625
SMILES: Cc1nc(C2CCCCC2)c(-c2cc(F)c(S(N)(=O)=O)c(F)c2)o1 [Example 6]

SMILES: COc1ccc2c(c1)c(CC(=O)O)c(C)n2C(=O)c1ccc(Cl)cc1 [Indomethacin, reference compound]
carrageenin-induced podedema in rats, ED30 (mg/kg p.o.) [2]: 2.9 mg/kg

SMILES: Cc1nc(C2CCCCC2)c(-c2ccc(S(C)(=O)=O)c(F)c2)o1 [Example 3, 4-cyclohexyl-5-(3-fluoro-4-methylsulfonylphenyl)-2-methyloxazole]
COX-1/COX-2 (human cyclooxygenase-2): >333

SMILES: Cc1nc(C2CCCCC2)c(-c2ccc(S(N)(=O)=O)c(C)c2)o1 [Example 5]
IC50 (human cyclooxygenase-2): > 10 µM

SMILES: Cc1nc(C2CCCCC2)c(-c2ccc(S(N)(=O)=O)c(Cl)c2)o1 [Example 4]
IC50 (human cyclooxygenase-2): > 10 µM
